26 molecules from patent publication US12559474B2, “Triazine derivatives having virus replication inhibitory activity and pharmaceutical composition comprising the same” (priority 2021, dated 2026) can be followed below.

The structures appear in SMILES notation. Read-outs that look alike come from different tables or passages of the source. Bounds are passed on as bounds.

One assay deals with SARS-CoV-2. The assay can be described thus: microbe, parasite or virus in culture. It counts as cell-based. The settings on record: Severe acute respiratory syndrome coronavirus 2, VeroE6/TMPRSS2, 72 h, 50% SARS-CoV-2 infected cell death inhibitory concentration, VeroE6/TMPRSS2 cells, 3 days culture.
Another assay has as its target SARS-CoV-2 3CL protease (Severe acute respiratory syndrome coronavirus 2, UniProt P0DTD1). Nature of the assay: biochemical. The settings on record: 50% SARS-CoV-2 3CL protease inhibitory concentration, read-out: IC50.

In turn, `Cn1cc2cc(Nc3nc(=O)n(-c4cncc(N)c4)c(=O)n3Cc3cc(Cl)c(F)cc3F)c(Cl)cc2n1` [II-0381] displayed an EC50 with SARS-CoV-2 (class symbols) of less than 1000 nM. Also, at SARS-CoV-2 3CL protease (given as class symbols), the IC50 was less than 100 nM.

`CNc1nc2cc(Cl)c(Nc3nc(=O)n(-c4cncc(C)c4)c(=O)n3Cc3ccc(F)c(C#N)c3)cc2s1` [II-0382] had an EC50 with SARS-CoV-2 (class symbols) of less than 1000 nM. In addition, the IC50 on SARS-CoV-2 3CL protease (given as class symbols) is less than 100 nM.

With `CNc1nc2ccc(Nc3nc(=O)n(-c4cncc(Cl)c4)c(=O)n3Cc3cc(C#N)ccc3C)cc2s1` [II-0383], the EC50 in the assay with SARS-CoV-2 (class symbols) was less than 1000 nM. In addition, the IC50 at SARS-CoV-2 3CL protease (given as class symbols) is less than 100 nM.

In the assay on SARS-CoV-2 (class symbols), `Cn1cc2cc(Nc3nc(=O)n(-c4cncc(N)c4)c(=O)n3Cc3cc(F)c(F)c(Cl)c3)c(Cl)cc2n1` [II-0384] gave an EC50 of 1000 to 10000 nM. For the same molecule, on SARS-CoV-2 3CL protease (given as class symbols), the IC50 is less than 100 nM.

In the assay with SARS-CoV-2 (class symbols), `CNc1nc2cc(F)c(Nc3nc(=O)n(-c4cncc(C)c4)c(=O)n3Cc3cc(Cl)c(F)cc3F)cc2s1` [II-0385] gave an EC50 of less than 1000 nM. The IC50 at SARS-CoV-2 3CL protease (given as class symbols) was less than 100 nM.

As for `Cn1cc2cc(Nc3nc(=O)n(-c4cncc(N)c4)c(=O)n3Cc3cc(F)c(F)cc3F)c(Cl)cc2n1` [II-0386], the EC50 in the assay on SARS-CoV-2 (class symbols) is 1000 to 10000 nM. For the same molecule, the IC50 on SARS-CoV-2 3CL protease (given as class symbols) is less than 100 nM.

In the case of `CNc1nc2ccc(Nc3nc(=O)n(-c4cncc(Cl)c4)c(=O)n3Cc3cc(F)c(F)c(C#N)c3)cc2s1` [II-0387], the EC50 in the assay on SARS-CoV-2 (class symbols) was less than 1000 nM. Moreover, the IC50 at SARS-CoV-2 3CL protease (given as class symbols) is less than 100 nM.

Consider `Cn1cc2cc(Nc3nc(=O)n(-c4cncc(C5CC5)c4)c(=O)n3Cc3ccc(F)c(C#N)c3)ccc2n1` [II-0388], for which, in the assay with SARS-CoV-2 (class symbols), the EC50 was less than 1000 nM. Besides, on SARS-CoV-2 3CL protease (given as class symbols), the IC50 was less than 100 nM.

For `Cn1cc2cc(Nc3nc(=O)n(-c4cncc(C#N)c4)c(=O)n3Cc3ccc(F)c(C#N)c3)ccc2n1` [II-0389], the EC50 in the assay with SARS-CoV-2 (CellTiter-Glo 2.0) is 4400 nM. For the same molecule, the IC50 on SARS-CoV-2 3CL protease (RapidFire MS) came to 45 nM.

In turn, `CCc1cncc(-n2c(=O)nc(Nc3ccc4nn(C)cc4c3)n(Cc3ccc(F)c(C#N)c3)c2=O)c1` [II-0390] displayed an EC50 in the assay with SARS-CoV-2 (class symbols) of 1000 to 10000 nM. The IC50 at SARS-CoV-2 3CL protease (given as class symbols) was less than 100 nM.

In the case of `Cn1cc2cc(Nc3nc(=O)n(-c4cnc5ccccn45)c(=O)n3Cc3cc(F)c(F)c(F)c3)c(Cl)cc2n1` [II-0391], the EC50 in the assay with SARS-CoV-2 (class symbols) fell in the range of 1000 to 10000 nM. Also, the IC50 at SARS-CoV-2 3CL protease (given as class symbols) was less than 100 nM.

As for `COc1ccc(Nc2nc(=O)n(-c3cc(C)cnn3)c(=O)n2Cc2cc(F)c(F)c(F)c2)cc1` [II-0392], it took 20800 nM to reach a half-maximal effect with SARS-CoV-2 (CellTiter-Glo 2.0) (EC50). The IC50 on SARS-CoV-2 3CL protease (RapidFire MS) came out at 1000 nM.

Regarding `COc1ccc(Nc2nc(=O)n(-c3cnc4sccn34)c(=O)n2Cc2cc(F)c(F)c(F)c2)cc1` [II-0393], a half-maximal response in the assay on SARS-CoV-2 (CellTiter-Glo 2.0) (EC50) required 6080 nM. Further, at SARS-CoV-2 3CL protease (RapidFire MS), the 50% inhibitory concentration (IC50) is 3100 nM.

For `COc1ccc(Nc2nc(=O)n(-c3cnnc(C)c3)c(=O)n2Cc2cc(F)c(F)c(F)c2)cc1` [II-0394], the EC50 with SARS-CoV-2 (CellTiter-Glo 2.0) came out at 44900 nM. The IC50 at SARS-CoV-2 3CL protease (RapidFire MS) was 3900 nM.

The molecule `CNc1nc2cc(Cl)c(Nc3nc(=O)n(-c4cncc(C)c4)c(=O)n3Cc3cc(C#N)ccc3C)cc2s1` [II-0395] displayed an EC50 with SARS-CoV-2 (class symbols) of less than 1000 nM. Also, the IC50 at SARS-CoV-2 3CL protease (given as class symbols) was less than 100 nM.

`CNc1nc2ccc(Nc3nc(=O)n(-c4cncc(Cl)c4)c(=O)n3Cc3cc(C#N)c(F)cc3C)cc2s1` [II-0396] showed an EC50 in the assay with SARS-CoV-2 (class symbols) of less than 1000 nM. Further, at SARS-CoV-2 3CL protease (given as class symbols), the IC50 is less than 100 nM.

`CNc1nc2ccc(Nc3nc(=O)n(-c4cncc(C)c4)c(=O)n3Cc3cc(F)c(F)c(C#N)c3)cc2s1` [II-0397] came in with an EC50 with SARS-CoV-2 (class symbols) of less than 1000 nM. The IC50 at SARS-CoV-2 3CL protease (given as class symbols) was less than 100 nM.

Turning to `CNc1nc2ccc(Nc3nc(=O)n(-c4cncc(Cl)c4)c(=O)n3Cc3cc(C#N)ccc3Cl)cc2s1` [II-0398], the EC50 in the assay on SARS-CoV-2 (class symbols) was less than 1000 nM. Besides, at SARS-CoV-2 3CL protease (given as class symbols), the IC50 is less than 100 nM.

As to `CNc1nc2cc(F)c(Nc3nc(=O)n(Cc4ncn(C)n4)c(=O)n3Cc3cc(F)c(F)cc3F)cc2s1` [II-0400], the EC50 in the assay with SARS-CoV-2 (class symbols) lay in the range of 1000 to 10000 nM. In addition, at SARS-CoV-2 3CL protease (given as class symbols), the IC50 was less than 100 nM.

In turn, `COc1ccc(Nc2nc(=O)n(-c3nncc4cnn(C)c34)c(=O)n2Cc2cc(F)c(F)c(F)c2)cc1` [II-0401] returned an EC50 with SARS-CoV-2 (CellTiter-Glo 2.0) of 2330 nM. In addition, on SARS-CoV-2 3CL protease (RapidFire MS), the IC50 turned out to be 290 nM.

Turning to `Cc1cncc(-n2c(=O)nc(Nc3cc4cn(C)nc4cc3Cl)n(Cc3cc(F)c(F)cc3Cl)c2=O)c1` [II-0402], the EC50 in the assay with SARS-CoV-2 (class symbols) was less than 1000 nM. Moreover, on SARS-CoV-2 3CL protease (given as class symbols), the IC50 is less than 100 nM.

`Cc1cncc(-n2c(=O)nc(Nc3cc4cn(C)nc4cc3Cl)n(Cc3cc(F)c(F)cc3C)c2=O)c1` [II-0403]: the EC50 with SARS-CoV-2 (class symbols) was less than 1000 nM. In addition, the IC50 on SARS-CoV-2 3CL protease (given as class symbols) was less than 100 nM.

On to `Cc1cncc(-n2c(=O)nc(Nc3cc4cn(C)nc4cc3Cl)n(Cc3cc(F)c(F)cc3Br)c2=O)c1` [II-0404], for which the EC50 in the assay on SARS-CoV-2 (class symbols) is less than 1000 nM. Moreover, the IC50 on SARS-CoV-2 3CL protease (given as class symbols) is less than 100 nM.

For the molecule `Cn1cnc(Cn2c(=O)nc(Nc3cc4cn(C)nc4cc3Cl)n(Cc3cc(F)c(F)cc3Cl)c2=O)n1` [II-0405], the EC50 with SARS-CoV-2 (class symbols) was less than 1000 nM. At SARS-CoV-2 3CL protease (given as class symbols), the IC50 is less than 100 nM.

In the assay with SARS-CoV-2 (class symbols), `Cc1cc(F)c(F)cc1Cn1c(Nc2cc3cn(C)nc3cc2Cl)nc(=O)n(Cc2ncn(C)n2)c1=O` [II-0406] returned an EC50 of less than 1000 nM. Besides, the IC50 on SARS-CoV-2 3CL protease (given as class symbols) was less than 100 nM.

Consider `Cc1cncc(-n2c(=O)nc(Nc3cc4c(cc3Cl)nc3n4CCN3)n(Cc3ccc(F)c(C#N)c3)c2=O)c1` [II-0407], for which, in the assay with SARS-CoV-2 (CellTiter-Glo 2.0), the EC50 was found to be 15000 nM. Besides, at SARS-CoV-2 3CL protease (RapidFire MS), the IC50 came out at 3.8 nM.

Broadly, the EC50 is the concentration that produces a half-maximal response. One may read the IC50 as the concentration that gives 50% inhibition.
